Measurements reported in PubChem BioAssay (NCI).
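Cells were grown in 96-well plates and exposed to each compound for 48 hours at five concentrations; endpoints were interpolated linearly between bracketing concentrations, or set to the highest concentration if not reached. TGI denotes the concentration required for complete inhibition of growth.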

Tests used:
Test in all cases: growth of human tumour cells (NCI), 48 h
COLO 205 colon = test system: COLO 205 colon
MCF7 breast = test system: MCF7 breast
MDA-N = test system: MDA-N
OVCAR-3 ovarian = test system: OVCAR-3 ovarian
OVCAR-4 ovarian = test system: OVCAR-4 ovarian
SF-268 CNS = test system: SF-268 CNS
SR leukemia = test system: SR leukemia
UACC-257 melanoma = test system: UACC-257 melanoma
UO-31 renal = test system: UO-31 renal
A498 renal = test system: A498 renal

SMILES	TGI (COLO 205 colon) [µM]	TGI (MCF7 breast) [µM]	TGI (MDA-N) [µM]	TGI (OVCAR-3 ovarian) [µM]	TGI (OVCAR-4 ovarian) [µM]	TGI (SF-268 CNS) [µM]	TGI (SR leukemia) [µM]	TGI (UACC-257 melanoma) [µM]	TGI (UO-31 renal) [µM]	TGI (A498 renal) [µM]
COc1c(C)c(C/C=C(\C)CCCC(C)CCCC(C)CCCC(C)C)c(OC)c2ccccc12 (stereo not given)	> 100	> 100	> 100	> 100	> 100	> 100	> 100	> 100	> 100	
COc1ccc(/C=C2\CCCc3ccccc3C2=O)cc1	0.557	99.2		0.422	> 100	5.53	> 32	37.8	> 100	
CCOC(=O)CCc1cn2cc(Br)nc(OC)c2n1	> 100	> 100	12.6	> 100	> 100	> 100	> 100	> 100	58.5	
O=C1c2ccncc2C(=O)c2c(O)ccc(O)c21	13.1			5.81	23.6	24.2	52.3		29.7	33.1
O=C1CC(c2ccsc2)n2cccc21 (stereo not given)	> 100	> 100		> 100	> 100	> 100	> 100	> 100	> 100	> 100
O=C1Nc2cccc(Cl)c2/C1=C\c1c(-c2ccccc2)nc2n1CCS2	39.5	39.1	40.6	43.5		66.9	53.2	51.4	48.8	39.4
Cc1ccc(N2C(=O)C3CSCN3C2=O)cc1 (stereo not given)	> 100	> 100		> 100	> 100	> 100		> 100	> 100	> 100
c1ccc2c[n+](CCCC[n+]3ccc4ccccc4c3)ccc2c1	> 100	> 100	> 100	> 100	> 100	> 100	> 100	> 100		> 100
O=c1cc(N2CCOCC2)n2c(ccc3ccccc32)n1	> 100	> 100	63	> 100		> 100	> 100	> 100	> 100	> 100
CCC1=C(C[C@H]2NCCc3cc(OC)c(OC)cc32)C[C@H]2c3cc(OC)c(OC)cc3CCN2C1				0.158	0.0717	0.407	55.1	0.365	0.923	0.0497
CCOC(=O)C1CCC(=O)N1C(=O)c1cccc(Cl)c1 (stereo not given)		> 100	> 100	> 100		> 100	> 100	> 100	> 100	> 100
Cc1cc2nc3ccccc3n2c2ccccc12	> 10	> 10	> 10	> 10	> 10	> 10	> 10	> 10		
C/C(=N\Nc1nc2ccccc2[nH]1)c1ncccn1	> 49.6		> 100	6.7	> 100	> 93.3	> 100	> 35.2		2.23
O=c1[nH]nc(-c2ccccc2)c2[nH]c3c(c12)Cc1ccccc1-3	> 34.4	> 100	> 27.4	> 49	> 100	> 100		> 100	> 100	> 100
CC(C)[C@H](C)/C=C/[C@@H](C)C1CC[C@H]2[C@@]34C=C[C@]5(C[C@@H](O)CC[C@]5(C)[C@H]3CC[C@]12C)OO4 (stereo not given in full)	> 100	> 100	> 100	> 100	> 100	> 100		> 100	> 100	57.3
Oc1ccc(Cl)cc1-c1cc(-c2ccccc2)nc(=S)[nH]1	> 100	> 100	> 100	> 100	> 100	77.7		> 100	68.9	> 100
C=C(Br)C[N+]12CN3CN(CN(C3)C1)C2	> 100		> 100	> 100	> 100	> 100	> 100	> 100	> 100	> 100
O=c1[nH]n(CCc2ccccc2CCl)c2ccc([N+](=O)[O-])cc12	> 100	> 100		> 100	92	> 100	> 100	> 100	> 100	> 100
C/C(=C\Cc1ccc(F)cc1)CCCCCC/C(C)=C/Cc1ccc(F)cc1	37.6	45.8	34.2	53.8	34.2	37.2	57.2	33.3	23.1	
Cn1c2ccccc2n2c3ncccc3c(=O)cc12	> 100		> 100	> 100	> 100	> 100		> 100	> 100	> 100
Cc1cc(S(=O)(=O)Nc2nc3cscc3c(=O)n2N)c(S)cc1Cl	> 100	> 100	> 100	> 100	> 100	> 100		> 100		
CC(C)(C)OC(=O)C(C#N)C(=O)c1ccc(C(=O)O)[nH]1 (stereo not given)	> 100		> 100	> 100	52.9	> 100		> 100	> 100	77.2
C=CC(C)(C)/C=C/c1ccc(O)cc1	> 100	> 100	> 100	> 100	> 100	> 100		> 100		> 100
O=Nc1c(-c2c(O)[nH]c3ccc(I)cc23)[nH]c2ccccc12	> 100	> 19.9	47.2	> 57.3	14.8	25.9		> 100	5.43	> 27.6
CC(=O)CC(=O)N1CCSC1=S		> 10	> 10	> 10		> 10	> 10	> 10	> 10	> 10
